According to PubChem BioAssay AID330 (DTP/NCI, 2004):
Where “and” joins values, the source holds several entries; their conditions need not be identical. Equal values may be shown once. Inconclusive results and toxic doses are left out. The calls were made as follows: active = survival T/C of 150% or more; inactive = T/C below 125% in these data.

Test system: P388 leukemia ip, CD2F1 mice, survival T/C
Experiment: NCI In Vivo Anticancer Drug Screen. Data for tumor model P388 Leukemia (intraperitoneal) in CD2F1 (CDF1) mice
Conditions: endpoint: median survival time, higher = longer survival
How it was run: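 Mice carrying the transplanted tumor received test compound or vehicle. Survival was recorded in each group, and the value is the treated-group measurement divided by that of the vehicle-treated control group.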

[1] = dose: 100.0 mg/kg/injection, schedule: Q04DX003 (ip), vehicle: saline with Tween-80
[2] = dose: 200.0 mg/kg/injection, schedule: Q04DX003 (ip), vehicle: saline with Tween-80
[3] = dose: 60.0 mg/kg/injection, schedule: Q01DX005 (ip), vehicle: saline with Tween-80
[4] = dose: 120.0 mg/kg/injection, schedule: Q01DX005 (ip), vehicle: saline with Tween-80

Measured: T/C

c1ccc2[nH]cnc2c1
inactive: dose: 20.0 mg/kg/injection, schedule: Q04DX003 (ip), vehicle: other 100 % of control | dose: 40.0 mg/kg/injection, schedule: Q04DX003 (ip), vehicle: other 99 % of control | dose: 40.0 mg/kg/injection, schedule: Q04DX003 (oral), vehicle: other 100 % of control | dose: 50.0 mg/kg/injection, schedule: Q01DX009 (ip), vehicle: suspension in saline 98 % of control | dose: 80.0 mg/kg/injection, schedule: Q04DX003 (ip), vehicle: other 95 % of control | dose: 100.0 mg/kg/injection, schedule: Q01DX009 (ip), vehicle: suspension in saline 90 % of control | [1] 100 % of control | dose: 160.0 mg/kg/injection, schedule: Q04DX003 (ip), vehicle: other 100 % of control | dose: 160.0 mg/kg/injection, schedule: Q04DX003 (oral), vehicle: other 104 % of control | dose: 200.0 mg/kg/injection, schedule: Q01DX009 (ip), vehicle: suspension in saline 106 % of control | [2] 100 % of control | dose: 320.0 mg/kg/injection, schedule: Q04DX003 (ip), vehicle: other 100 % of control | dose: 400.0 mg/kg/injection, schedule: Q04DX003 (ip), vehicle: saline with Tween-80 90 % of control

CC12CC3CC(C)(C1)CC(OCCN)(C3)C2
inactive: [3] 101 % of control | [4] 104 % of control

O=c1ccn(C2CCCCC2)c(=O)[nH]1
inactive: dose: 6.25 mg/kg/injection, schedule: Q01DX005 (ip), vehicle: Klucel (hydroxypropylcellulose) (HPC) 99 % of control | dose: 12.5 mg/kg/injection, schedule: Q01DX005 (ip), vehicle: Klucel (hydroxypropylcellulose) (HPC) 95 % of control | dose: 25.0 mg/kg/injection, schedule: Q01DX005 (ip), vehicle: Klucel (hydroxypropylcellulose) (HPC) 91 % of control

C=CCc1ccc(Oc2cc(CC=C)cc(O)c2O)cc1
inactive: dose: 25.0 mg/kg/injection, schedule: Q01DX005 (ip), vehicle: Klucel + Tween-80 101 % of control | dose: 50.0 mg/kg/injection, schedule: Q01DX005 (ip), vehicle: Klucel + Tween-80 104 % of control | dose: 100.0 mg/kg/injection, schedule: Q01DX005 (ip), vehicle: Klucel + Tween-80 106 % of control | dose: 200.0 mg/kg/injection, schedule: Q01DX005 (ip), vehicle: Klucel + Tween-80 113 % of control

CCCCCCCCCCC(O)CCCCCCCCCC
inactive: [1] 95 % of control | [2] 90 % of control

c1cnn(P2(n3cccn3)=NP(n3cccn3)(n3cccn3)=NP(n3cccn3)(n3cccn3)=NP(n3cccn3)(n3cccn3)=NP(n3cccn3)(n3cccn3)=NP(n3cccn3)(n3cccn3)=N2)c1
inactive: dose: 100.0 mg/kg/injection, schedule: Q01DX001 (ip), vehicle: saline with Tween-80 100 % of control | dose: 200.0 mg/kg/injection, schedule: Q01DX001 (ip), vehicle: saline with Tween-80 100 % of control | dose: 400.0 mg/kg/injection, schedule: Q01DX001 (ip), vehicle: saline with Tween-80 98 % of control

COc1c(NC=O)c2c(c([N+](=O)[O-])c1OC)C(=O)OC2
inactive: dose: 50.0 mg/kg/injection, schedule: Q01DX005 (ip), vehicle: Klucel (hydroxypropylcellulose) (HPC) 102 % of control | dose: 100.0 mg/kg/injection, schedule: Q01DX005 (ip), vehicle: Klucel (hydroxypropylcellulose) (HPC) 99 % of control | dose: 200.0 mg/kg/injection, schedule: Q01DX005 (ip), vehicle: Klucel (hydroxypropylcellulose) (HPC) 98 % of control

CCC(C)(OC(C)=O)C(=O)OC1C(=O)OC2CC3C(C)=CC(O)C(O)C3(C)C3C4(O)OCC23C1C(C)C4O (configuration not stated)
inactive: dose: 0.25 mg/kg/injection, schedule: Q01DX009 (ip), vehicle: saline + alcohol 103 % of control | dose: 0.5 mg/kg/injection, schedule: Q01DX009 (ip), vehicle: saline + alcohol 96 % of control | dose: 1.0 mg/kg/injection, schedule: Q01DX009 (ip), vehicle: saline + alcohol 96 % of control | dose: 2.0 mg/kg/injection, schedule: Q01DX009 (ip), vehicle: saline + alcohol 96 % of control | dose: 4.0 mg/kg/injection, schedule: Q01DX009 (ip), vehicle: saline + alcohol 99 % of control

COc1cccc2c1C(=O)c1c(O)c3c(c(O)c1C2=O)CC(O)(C(=O)COc1ccccc1)CC3O (configuration not stated)
inactive: dose: 1.56 mg/kg/injection, schedule: Q01DX009 (ip), vehicle: other 108 % of control | dose: 3.13 mg/kg/injection, schedule: Q01DX009 (ip), vehicle: other 106 % of control | dose: 6.25 mg/kg/injection, schedule: Q01DX009 (ip), vehicle: other 105 % of control | dose: 12.5 mg/kg/injection, schedule: Q01DX009 (ip), vehicle: other 97 % of control | dose: 25.0 mg/kg/injection, schedule: Q01DX009 (ip), vehicle: other 91 % of control

C[N+](C)(C)C1(Cc2ccccc2)c2ccccc2-c2ccc(Cl)cc21 (configuration not stated)
inactive: dose: 12.5 mg/kg/injection, schedule: Q01DX009 (ip), vehicle: Klucel (hydroxypropylcellulose) (HPC) 107 % of control | dose: 25.0 mg/kg/injection, schedule: Q01DX009 (ip), vehicle: Klucel (hydroxypropylcellulose) (HPC) 105 % of control | dose: 50.0 mg/kg/injection, schedule: Q01DX009 (ip), vehicle: Klucel (hydroxypropylcellulose) (HPC) 108 % of control and 94 % of control

C=CC1=C(C)C(/C=c2/[nH]/c(=C\c3[nH]c(/C=C4/NC(=O)C(C)=C4C=C)c(C)c3CCC(=O)O)c(CCC(=O)O)c2C)=NC1=O
inactive: dose: 50.0 mg/kg/injection, schedule: Q01DX009 (ip), vehicle: saline with Tween-80 95 % of control | dose: 100.0 mg/kg/injection, schedule: Q01DX009 (ip), vehicle: saline with Tween-80 91 % of control | dose: 200.0 mg/kg/injection, schedule: Q01DX009 (ip), vehicle: saline with Tween-80 88 % of control

CC(C)(C)C1=CS(=O)(=O)C1
inactive: dose: 1.56 mg/kg/injection, schedule: Q01DX001 (ip), vehicle: saline with Tween-80 103 % of control | dose: 3.12 mg/kg/injection, schedule: Q01DX001 (ip), vehicle: saline with Tween-80 102 % of control

Cc1c(N=Nc2c(S(=O)(=O)O)cc3cc(S(=O)(=O)O)c(N=Nc4c(C)n(C)n(-c5ccccc5)c4=O)c(O)c3c2O)c(=O)n(-c2ccccc2)n1C
inactive: dose: 60.0 mg/kg/injection, schedule: Q01DX005 (ip), vehicle: suspension in saline 101 % of control | dose: 120.0 mg/kg/injection, schedule: Q01DX005 (ip), vehicle: suspension in saline 96 % of control | dose: 240.0 mg/kg/injection, schedule: Q01DX005 (ip), vehicle: suspension in saline 110 % of control

C=C1C(=O)OC2/C=C(\C)CC(O)/C=C(\C)CC(OC(=O)C3(CO)OC3C)C12 (configuration not stated)
inactive: dose: 25.0 mg/kg/injection, schedule: Q01DX001 (ip), vehicle: Klucel (hydroxypropylcellulose) (HPC) 113 % of control | dose: 50.0 mg/kg/injection, schedule: Q01DX001 (ip), vehicle: Klucel (hydroxypropylcellulose) (HPC) 101 % of control | dose: 100.0 mg/kg/injection, schedule: Q01DX001 (ip), vehicle: Klucel (hydroxypropylcellulose) (HPC) 108 % of control

Cc1ncc(O)c(C(=O)O)c1C(=O)O
inactive: dose: 17.5 mg/kg/injection, schedule: Q01DX005 (ip), vehicle: Klucel (hydroxypropylcellulose) (HPC) 100 % of control | dose: 35.0 mg/kg/injection, schedule: Q01DX005 (ip), vehicle: Klucel (hydroxypropylcellulose) (HPC) 103 % of control | dose: 70.0 mg/kg/injection, schedule: Q01DX005 (ip), vehicle: Klucel (hydroxypropylcellulose) (HPC) 100 % of control

Cc1ccc(S(=O)(=O)NN=C2[C@H]3CC=CC[C@H]3C(=NNS(=O)(=O)c3ccc(C)cc3)[C@@H]3CC=CC[C@H]23)cc1
inactive: dose: 50.0 mg/kg/injection, schedule: Q01DX005 (ip), vehicle: saline with Tween-80 90 % of control | dose: 100.0 mg/kg/injection, schedule: Q01DX005 (ip), vehicle: saline with Tween-80 87 % of control | dose: 200.0 mg/kg/injection, schedule: Q01DX005 (ip), vehicle: saline with Tween-80 103 % of control

CCC(/C=C/c1ccccc1)=N\Nc1ccc(Cl)cc1
inactive: [3] 104 % of control | [4] 101 % of control | dose: 240.0 mg/kg/injection, schedule: Q01DX005 (ip), vehicle: saline with Tween-80 98 % of control

COc1c(C)n(CCO)ccc1=O
inactive: dose: 50.0 mg/kg/injection, schedule: Q01DX005 (ip), vehicle: saline 102 % of control and 104 % of control | dose: 100.0 mg/kg/injection, schedule: Q01DX005 (ip), vehicle: saline 99 % of control and 100 % of control | dose: 200.0 mg/kg/injection, schedule: Q01DX005 (ip), vehicle: saline 99 % of control and 100 % of control | dose: 400.0 mg/kg/injection, schedule: Q01DX005 (ip), vehicle: saline 99 % of control and 103 % of control
